Tests used:
Assay type in all cases: in vivo
Spring Wheat “Freya” = assay: Test 1B glasshouse assay, post-emergence herbicidal activity against cereal crops
Avena fatua (AVEFA) = assay: Test 1B glasshouse assay, post-emergence herbicidal activity against grassy weeds; conditions: 14 DAA
In short: (§1)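 Unformulated compound was dissolved as a 50 g/L emulsifiable IF50, then diluted in 0.5% v/v Adigor to spray plants 14 days after sowing. Usual rates were 60 g/ha with or without, or 90 and 120 g/ha with, 50 g/ha cloquintocet-mexyl. Visual % phytotoxicity at 14 DAA, mean of two replicates.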

Setaria viridis (SETVI) = assay: as above; conditions: 14 DAA
In short: as §1

[1] = tested on: Lolium multiflorum (LOLMU); assay: as above; conditions: 14 DAA
In short: as §1

[2] = tested on: Alopecurus myosuroides (ALOMY); assay: as above; conditions: 14 DAA
In short: as §1

Poa annua (POAAN) = assay: as above; conditions: 14 DAA
In short: as §1

Winter Wheat “Hereward” = assay: Test 1B glasshouse assay, post-emergence herbicidal activity against cereal crops
In short: (§2)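 Visual percentage damage (100% = total, 0% = none) read 14 days after application, averaged over two replicates. Plants grown 14 days at 22/16 °C day/night before post-emergence spraying of unformulated compound (IF50/acetone, 0.5% v/v Adigor). Rates usually 60–120 g/ha; cloquintocet-mexyl 50 g/ha co-applied where stated.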

Winter Barley “Suzuka” = assay: as above
In short: as §2

[3] = tested on: Spring Barley “Harrington”; assay: as above
In short: as §2

[4] = herbicide 30 g/ha, cloquintocet-mexyl 50 g/ha
[5] = herbicide 45 g/ha, cloquintocet-mexyl 50 g/ha
[6] = herbicide 60 g/ha, cloquintocet-mexyl 0 g/ha
[7] = herbicide 60 g/ha, cloquintocet-mexyl 50 g/ha
[8] = 30 g/ha herbicide, 50 g/ha cloquintocet-mexyl
[9] = 45 g/ha herbicide, 50 g/ha cloquintocet-mexyl
[10] = 60 g/ha herbicide, 0 g/ha cloquintocet-mexyl
[11] = 60 g/ha herbicide, 50 g/ha cloquintocet-mexyl

Cc1cc(C)c(C2C(=O)C[C@H](CCNC(=O)c3cc(Cl)ccn3)C2=O)c(C)c1 (stereo partly drawn) [Compound A128]
Percentage Phytotoxicity Spring Wheat “Freya” (Spring Wheat “Freya”; [4]): 3% | Percentage Phytotoxicity Spring Wheat “Freya” (Spring Wheat “Freya”; [5]): 0% | Percentage Phytotoxicity Spring Wheat “Freya” (Spring Wheat “Freya”; [6]): 7% | Percentage Phytotoxicity Spring Wheat “Freya” (Spring Wheat “Freya”; [7]): 3% | Post-emergence herbicidal activity, percentage phytotoxicity, AVEFA (Avena fatua (AVEFA); [8]): 0% | Post-emergence herbicidal activity, percentage phytotoxicity, AVEFA (Avena fatua (AVEFA); [9]): 3% | Post-emergence herbicidal activity, percentage phytotoxicity, AVEFA (Avena fatua (AVEFA); [10]): 18% | Post-emergence herbicidal activity, percentage phytotoxicity, AVEFA (Avena fatua (AVEFA); [11]): 10% | Post-emergence herbicidal activity, percentage phytotoxicity, SETVI (Setaria viridis (SETVI); [8]): 23% | Post-emergence herbicidal activity, percentage phytotoxicity, SETVI (Setaria viridis (SETVI); [9]): 43% | Post-emergence herbicidal activity, percentage phytotoxicity, SETVI (Setaria viridis (SETVI); [10]): 55% | Post-emergence herbicidal activity, percentage phytotoxicity, SETVI (Setaria viridis (SETVI); [11]): 63% | Post-emergence herbicidal activity, percentage phytotoxicity, LOLMU [1, 8]: 43% | Post-emergence herbicidal activity, percentage phytotoxicity, LOLMU [1, 9]: 63% | Post-emergence herbicidal activity, percentage phytotoxicity, LOLMU [1, 10]: 85% | Post-emergence herbicidal activity, percentage phytotoxicity, LOLMU [1, 11]: 78% | Post-emergence herbicidal activity, percentage phytotoxicity, ALOMY [2, 8]: 3% | Post-emergence herbicidal activity, percentage phytotoxicity, ALOMY [2, 9]: 25% | Post-emergence herbicidal activity, percentage phytotoxicity, ALOMY [2, 10]: 48% | Post-emergence herbicidal activity, percentage phytotoxicity, ALOMY [2, 11]: 35% | Post-emergence herbicidal activity, percentage phytotoxicity, POAAN (Poa annua (POAAN); [8]): 0% | Post-emergence herbicidal activity, percentage phytotoxicity, POAAN (Poa annua (POAAN); [9]): 0% | Post-emergence herbicidal activity, percentage phytotoxicity, POAAN (Poa annua (POAAN); [10]): 5% | Post-emergence herbicidal activity, percentage phytotoxicity, POAAN (Poa annua (POAAN); [11]): 0% | Percentage Phytotoxicity Winter Wheat “Hereward” (Winter Wheat “Hereward”; [4]): 0% | Percentage Phytotoxicity Winter Wheat “Hereward” (Winter Wheat “Hereward”; [5]): 0% | Percentage Phytotoxicity Winter Wheat “Hereward” (Winter Wheat “Hereward”; [6]): 8% | Percentage Phytotoxicity Winter Wheat “Hereward” (Winter Wheat “Hereward”; [7]): 0% | Percentage Phytotoxicity Winter Barley “Suzuka” (Winter Barley “Suzuka”; [4]): 0% | Percentage Phytotoxicity Winter Barley “Suzuka” (Winter Barley “Suzuka”; [5]): 0% | Percentage Phytotoxicity Winter Barley “Suzuka” (Winter Barley “Suzuka”; [6]): 18% | Percentage Phytotoxicity Winter Barley “Suzuka” (Winter Barley “Suzuka”; [7]): 0% | Percentage Phytotoxicity Spring Barley “Harrington” [3, 4]: 0% | Percentage Phytotoxicity Spring Barley “Harrington” [3, 5]: 0% | Percentage Phytotoxicity Spring Barley “Harrington” [3, 6]: 48% | Percentage Phytotoxicity Spring Barley “Harrington” [3, 7]: 0%

Reference: patent US9808003B2, “Herbicidally active 2-(substituted-phenyl)-cyclopentane-1,3-dione compounds and derivatives thereof” (Syngenta Limited, priority 2013, dated 2017)
